Source: patent US20260158056A1, “USE OF LOW MOLECULAR WEIGHT HYALURONIC ACID FOR THE TREATMENT OF LUNG MUCOSAL INFLAMMATION” (INSTITUT NATIONAL DE LA SANTÉ ET DE LA RECHERCHE MÉDICALE, priority 2021, published 2026)

What was measured:
Format in all cases: cell-based
[1] = system: IL-8 secreted by human COPD airway epithelial cells; assay: IL-8 ELISA, COPD airway epithelial cell monolayers, Cytomix 24 h then Cytomix + treatment 24 h (curative); details: FIG. 17, 19; curative: Cytomix 24 h, then Cytomix + HA 1 mg/mL or Dexa 10^-6M 24 h; n=5 COPD patients
Method: (§1) FIG. 17: Measurement by ELISA assay of the pro-inflammatory chemokine IL-8 secreted human COPD airway epithelial cells cultured as monolayers. Airway epithelial cells were seeded in 48-wells plates and cultured until confluence was reached. Cells were then treated for 24 h with a pro-inflammatory chemokine cocktail (TNFα, IL1β and IFNγ 10 ng/ml each) called Cytomix (Cy). Cells were thereafter treated with a combo containing Cytomix and the anti-inflammatory dexamethasone (Dexa; 10^-6M), 15-45 kDa sodium-hyaluronic acid (HA-Na 15-45 kDa) (ARD—Pomacle—France—as prepared according to WO2004050187), 15-30 kDa sodium-hyaluronic acid (HA-Na 15-30 kDa) (Sigma Aldrich), or 30-50 kDa sodium-hyaluronic acid (HA-Na 30-50 kDa) (Sigma Aldrich) at 1 mg/mL during the following 24 h. The culture medium was finally collected and the IL-8 content was determined by ELISA assay. n=5 different COPD patients. p<0.001 (***); p<0.01 (**); p<0.05 (*). ns: non-significant.
FIG. 19: Measurement by ELISA assay of the pro-inflammatory chemokine IL-8 secreted by human COPD airway epithelial cells cultured as monolayers. Airway epithelial cells were seeded in 48-wells plates and cultured until confluence was reached. Cells were then treated for 24 h with a pro-inflammatory chemokine cocktail (TNFα, IL1β and IFNγ 10 ng/ml each) called Cytomix (Cy). Cells were thereafter treated with a combo containing Cytomix and the anti-inflammatory dexamethasone (Dexa; 10^-6M), or 15-45 kDa sodium-hyaluronic acid (HA-Na 15-45 kDa) (ARD—Pomacle—France—as prepared according to WO2004050187), 15-45 kDa calcium-hyaluronic acid (HA-Ca 15-45 kDa; ARD), or 15-45 kDa potassium hyaluronic acid (HA-K 15-45 kDa; ARD) at 1 mg/mL during the following 24 h. The culture medium was finally collected and the IL-8 content was determined. n=5 different COPD patients. p<0.001 (***); p<0.01 (**); p<0.05 (*). ns: non-significant.

[2] = system: IL-8 secreted by non-CF human airway epithelial cells; assay: IL-8 ELISA, non-CF airway epithelial cell monolayers, Cytomix 24 h then Cytomix + treatment 24 h (curative); details: FIG. 12, 15; curative: Cytomix 24 h, then Cytomix + HA 1 mg/mL or Dexa 10^-6M 24 h; n=8 non-CF patients
Method: as §1, with “12:” for “17:”, “secreted non-CF” for “secreted”, “human” for “human COPD”, “n=8” for “n=5”, “non-CF” for “COPD”
(§2) FIG. 15: Measurement by ELISA assay of the pro-inflammatory chemokine IL-8 secreted by non-CF human airway epithelial cells cultured as monolayers. Airway epithelial cells were seeded in 48-wells plates and cultured until confluence was reached. Cells were then treated for 24 h with a pro-inflammatory chemokine cocktail (TNFα, IL1β and IFNγ 10 ng/ml each) called Cytomix (Cy). Cells were thereafter treated with a combo containing Cytomix and the anti-inflammatory dexamethasone (Dexa; 10^-6M), 15-45 kDa sodium-hyaluronic acid (HA-Na 15-45 kDa) (ARD—Pomacle—France—as prepared according to WO2004050187), 15-45 kDa calcium-hyaluronic acid (HA-Ca 15-45 kDa; ARD), or 15-45 kDa potassium hyaluronic acid (HA-K 15-45 kDa; ARD) at 1 mg/mL during the following 24 h. The culture medium was finally collected and the IL-8 content was determined. n=8 different non-CF patients. p<0.001 (***); p<0.01 (**); p<0.05 (*). ns: non-significant.

[3] = system: IL-8 secreted by non-CF human airway epithelial cells; assay: IL-8 ELISA, non-CF airway epithelial cell monolayers, Cytomix + treatment 24 h (co-treatment); details: FIG. 13, 16; co-treatment: Cytomix + HA 1 mg/mL or Dexa 10^-6M 24 h; n=8 non-CF patients
Method: FIG. 13: Measurement by ELISA assay of the pro-inflammatory chemokine IL-8 secreted by non-CF human airway epithelial cells cultured as monolayers. Airway epithelial cells were seeded in 48-wells plates and cultured until confluence was reached. Cells were then treated for 24 h with a combo containing a pro-inflammatory chemokine cocktail (TNFα, IL1β and IFNγ 10 ng/ml each) called Cytomix (Cy) and the anti-inflammatory dexamethasone (Dexa; 10^-6M), 15-45 kDa sodium-hyaluronic acid (HA-Na 15-45 kDa) (ARD—Pomacle—France—as prepared according to WO2004050187), 15-30 kDa sodium-hyaluronic acid (HA-Na 15-30 kDa) (Sigma Aldrich), or 30-50 kDa sodium-hyaluronic acid (HA-Na 30-50 kDa) (Sigma Aldrich) at 1 mg/mL. The culture medium was then collected and the IL-8 content was determined. n=8 different non-CF patients. p<0.001 (***); p<0.01 (**); p<0.05 (*). ns: non-significant.
as §2, with “FIG. 16: Measurement by” for “FIG. 15: Measurement by”, “with a combo containing a pro-inflammatory chemokine” for “with a pro-inflammatory chemokine”, “called Cytomix (Cy) and the” for “called Cytomix (Cy). Cells were thereafter treated with a combo containing Cytomix and the”, “at 1 mg/mL. The culture” for “at 1 mg/mL during the following 24 h. The culture”, “medium was then collected and” for “medium was finally collected and”

| Compound | decrease in IL-8 secretion [1] [%] | decrease in IL-8 secretion [2] [%] | decrease in IL-8 secretion [3] [%] |
| --- | --- | --- | --- |
| 15-30 kDa sodium-hyaluronic acid [HA-Na 15-30 kDa] | 65 | 46.1 | 38.1 |
| 15-45 kDa calcium-hyaluronic acid [HA-Ca 15-45 kDa] | 61.5 | 6.5 | 8.5 |
| 15-45 kDa potassium-hyaluronic acid [HA-K 15-45 kDa] | 61.1 | 17.8 | 22.2 |
| 15-45 kDa sodium-hyaluronic acid [HA-Na 15-45 kDa] | 60.2 | 39.6 | 41.6 |
| 30-50 kDa sodium-hyaluronic acid [HA-Na 30-50 kDa] | 69.5 | 34.8 | 32.1 |
| C[C@@H]1C[C@H]2[C@@H]3CCC4=CC(=O)C=C[C@]4(C)[C@@]3(F)[C@@H](O)C[C@]2(C)[C@@]1(O)C(=O)CO [Dexamethasone, dexamethasone, reference compound] | 68.8 | 21.1 | 33.9 |
